# Source: patent publication US8481730B2, “Method of synthesis of Bosentan, its polymorphic forms and its salts” (CIPLA Limited, priority 2008, dated 2013)
# Details: on exposure to air; "stable" = non-hygroscopic, does not pick up moisture even in a highly humid atmosphere
# From the text: According to another aspect of the present invention, there is provided anhydrous bosentan.
smiles,measurement,value
"COc1ccccc1Oc1c(NS(=O)(=O)c2ccc(C(C)(C)C)cc2)nc(-c2ncccn2)nc1OCCO [Form B, Bosentan Form B]",stability / hygroscopicity (moisture pick-up),stable and non-hygroscopic
